{
  "source": "paper PMC3594701",
  "about": "(Journal of acquired immune deficiency syndromes (1999), 2011)",
  "key": {"[1]": {"assay": "Steady-state intracellular", "type": "in vivo, human", "conditions": "IC (PBMC); for GM AUC: AUC0–12; for Cmax: GM Cmax"}, "[2]": {"assay": "Steady-state plasma pharmacokinetics", "type": "in vivo, human", "conditions": "for Cmax: GM Cmax"}, "[3]": {"conditions": "10 HIV-infected individuals, 6 also on twice-daily darunavir/ritonavir; cited from earlier work"}, "[4]": {"assay": "IC accumulation: ratio of IC drug to drug in plasma", "conditions": "human, GM IC to Plasma Ratio"}, "HIV": {"tested_on": "HIV", "conditions": "800 mg once daily versus approved 400 mg twice-daily dose; cited from earlier work"}, "[5]": {"conditions": "group 1, period 2 (day 35): raltegravir 400 mg twice daily + darunavir/ritonavir 800/100 mg once daily"}, "[6]": {"conditions": "group 1, period 2 (day 35): raltegravir 400 mg twice daily + darunavir/ritonavir 800/100 mg once daily, listed as raltegravir"}, "[7]": {"conditions": "group 2, period 2 (day 35): raltegravir 800 mg once daily + darunavir/ritonavir 800/100 mg once daily"}},
  "note": "Marks after values point to notes of the source that are not given here.",
  "data": [
    {"molecule": "Cc1nnc(C(=O)NC(C)(C)c2nc(C(=O)NCc3ccc(F)cc3)c(O)c(=O)n2C)o1", "note": "[Raltegravir, raltegravir]", "values": [
      {"measurement": "GM AUC", "setting": "[1]; group 1, period 1 (day 21): raltegravir 400 mg twice daily, without darunavir/ritonavir", "value": 9010, "unit": "ng/h/mL"},
      {"measurement": "GM AUC", "setting": "[1]; group 1, period 1 (day 21): raltegravir 400 mg twice daily, without darunavir/ritonavir, listed as raltegravir", "value": "9010 (7852–13,519) ng·h^−1·mL^−1"},
      {"measurement": "GM Ctrough", "setting": "[1]; [5]", "value": 105, "unit": "ng/mL"},
      {"measurement": "GM Ctrough", "setting": "[1]; [6]", "value": "105 (51–295) ng/mL"},
      {"measurement": "GM AUC", "setting": "[1]; group 2, period 1 (day 21): raltegravir 400 mg twice daily, without darunavir/ritonavir", "value": 8780, "unit": "ng/h/mL"},
      {"measurement": "GM AUC", "setting": "[1]; group 2, period 1 (day 21): raltegravir 400 mg twice daily, without darunavir/ritonavir, listed as raltegravir", "value": "8780 (7286–16,400) ng·h^−1·mL^−1"},
      {"measurement": "GM Ctrough", "setting": "[1]; [7]", "value": 22, "unit": "ng/mL"},
      {"measurement": "Cmax", "setting": "[1]; human, PBMC (intracellular), oral, 400 mg, group 2, period 1 (day 21): raltegravir 400 mg twice daily, without darunavir/ritonavir", "value": 1870, "unit": "ng/mL"},
      {"measurement": "Cmax", "setting": "[1]; human, PBMC, 400 mg, group 1, period 1 (day 21): raltegravir 400 mg twice daily, without darunavir/ritonavir", "value": 2310, "unit": "ng/mL"},
      {"measurement": "concentration at 12 h", "setting": "[1]; human, PBMC, GM Ctrough, group 1, period 1 (day 21): raltegravir 400 mg twice daily, without darunavir/ritonavir", "value": 101, "unit": "ng/mL"},
      {"measurement": "concentration at 12 h", "setting": "[1]; human, PBMC, GM Ctrough, group 2, period 1 (day 21): raltegravir 400 mg twice daily, without darunavir/ritonavir", "value": 115, "unit": "ng/mL"},
      {"measurement": "Cmax", "setting": "[1]; human, PBMC, oral, 400 mg, group 1, period 1 (day 21): raltegravir 400 mg twice daily, without darunavir/ritonavir", "value": 2310, "unit": "ng/mL"},
      {"measurement": "Cmax", "setting": "[1]; human, PBMC, oral, group 1, period 2 (day 35): raltegravir 400 mg twice daily + darunavir/ritonavir 800/100 mg once daily", "value": 2170, "unit": "ng/mL"},
      {"measurement": "Cmax", "setting": "[1]; human, PBMC, oral, group 2, period 2 (day 35): raltegravir 800 mg once daily + darunavir/ritonavir 800/100 mg once daily", "value": 2820, "unit": "ng/mL"},
      {"measurement": "concentration at 12 h", "setting": "[1]; human, PBMC, oral, GM Ctrough, group 1, period 1 (day 21): raltegravir 400 mg twice daily, without darunavir/ritonavir", "value": 101, "unit": "ng/mL"},
      {"measurement": "concentration at 12 h", "setting": "[1]; human, PBMC, oral, GM Ctrough, group 2, period 1 (day 21): raltegravir 400 mg twice daily, without darunavir/ritonavir", "value": 115, "unit": "ng/mL"},
      {"measurement": "concentration at 24 h", "setting": "[1]; human, PBMC, oral, GM Ctrough, group 2, period 2 (day 35): raltegravir 800 mg once daily + darunavir/ritonavir 800/100 mg once daily", "value": 22, "unit": "ng/mL"},
      {"measurement": "GM Ctrough", "setting": "[2]; [5]", "value": 20, "unit": "ng/mL"},
      {"measurement": "GM Ctrough", "setting": "[2]; [6]", "value": "20 (17–25) ng/mL"},
      {"measurement": "GM Ctrough", "setting": "[2]; [7]", "value": "11 ^* ng/mL"},
      {"measurement": "Cmax", "setting": "[2]; human, group 1, period 2 (day 35): raltegravir 400 mg twice daily + darunavir/ritonavir 800/100 mg once daily", "value": 438, "unit": "ng/mL"},
      {"measurement": "concentration at 12 h", "setting": "[2]; human, GM Ctrough, group 1, period 1 (day 21): raltegravir 400 mg twice daily, without darunavir/ritonavir", "value": 23, "unit": "ng/mL"},
      {"measurement": "concentration at 12 h", "setting": "[2]; human, GM Ctrough, group 2, period 1 (day 21): raltegravir 400 mg twice daily, without darunavir/ritonavir", "value": 28, "unit": "ng/mL"},
      {"measurement": "Cmax", "setting": "[2]; human, oral, 400 mg, group 1, period 1 (day 21): raltegravir 400 mg twice daily, without darunavir/ritonavir", "value": 533, "unit": "ng/mL"},
      {"measurement": "Cmax", "setting": "[2]; human, oral, 400 mg, group 2, period 1 (day 21): raltegravir 400 mg twice daily, without darunavir/ritonavir", "value": 361, "unit": "ng/mL"},
      {"measurement": "Cmax", "setting": "[2]; human, oral, group 2, period 2 (day 35): raltegravir 800 mg once daily + darunavir/ritonavir 800/100 mg once daily", "value": 556, "unit": "ng/mL"},
      {"measurement": "concentration at 12 h", "setting": "[2]; human, oral, GM Ctrough, group 1, period 1 (day 21): raltegravir 400 mg twice daily, without darunavir/ritonavir", "value": 23, "unit": "ng/mL"},
      {"measurement": "concentration at 12 h", "setting": "[2]; human, oral, GM Ctrough, group 2, period 1 (day 21): raltegravir 400 mg twice daily, without darunavir/ritonavir", "value": 28, "unit": "ng/mL"},
      {"measurement": "concentration at 24 h", "setting": "[2]; human, oral, GM Ctrough, group 2, period 2 (day 35): raltegravir 800 mg once daily + darunavir/ritonavir 800/100 mg once daily", "value": 11, "unit": "ng/mL"},
      {"measurement": "decrease of plasma AUC", "setting": "[3]", "value": 33, "unit": "%"},
      {"measurement": "Kp", "setting": "[4]; PBMC (intracellular)/plasma, oral, 400 mg, AUC, group 1, period 1 (day 21): raltegravir 400 mg twice daily, without darunavir/ritonavir", "value": 4.9},
      {"measurement": "Kp", "setting": "[4]; PBMC (intracellular)/plasma, oral, 400 mg, AUC, group 2, period 1 (day 21): raltegravir 400 mg twice daily, without darunavir/ritonavir", "value": 5.6},
      {"measurement": "Kp", "setting": "[4]; PBMC (intracellular)/plasma, oral, 400 mg, Cmax, group 1, period 1 (day 21): raltegravir 400 mg twice daily, without darunavir/ritonavir", "value": 4.6},
      {"measurement": "Kp", "setting": "[4]; PBMC (intracellular)/plasma, oral, 400 mg, Cmax, group 2, period 1 (day 21): raltegravir 400 mg twice daily, without darunavir/ritonavir", "value": 5.5},
      {"measurement": "Kp", "setting": "[4]; PBMC (intracellular)/plasma, oral, 400 mg, Ctrough, group 1, period 1 (day 21): raltegravir 400 mg twice daily, without darunavir/ritonavir", "value": 5.1},
      {"measurement": "Kp", "setting": "[4]; PBMC (intracellular)/plasma, oral, 400 mg, Ctrough, group 2, period 1 (day 21): raltegravir 400 mg twice daily, without darunavir/ritonavir", "value": 4.6},
      {"measurement": "Kp", "setting": "[4]; intracellular (PBMC) / plasma, AUC (raltegravir), group 1, period 2 (day 35): raltegravir 400 mg twice daily + darunavir/ritonavir 800/100 mg once daily", "value": 5.8},
      {"measurement": "Kp", "setting": "[4]; intracellular (PBMC) / plasma, AUC (raltegravir), group 2, period 2 (day 35): raltegravir 800 mg once daily + darunavir/ritonavir 800/100 mg once daily", "value": 6},
      {"measurement": "Kp", "setting": "[4]; intracellular (PBMC) / plasma, oral, Cmax, group 1, period 2 (day 35): raltegravir 400 mg twice daily + darunavir/ritonavir 800/100 mg once daily", "value": 5.6},
      {"measurement": "Kp", "setting": "[4]; intracellular (PBMC) / plasma, oral, Cmax, group 2, period 2 (day 35): raltegravir 800 mg once daily + darunavir/ritonavir 800/100 mg once daily", "value": 6.8},
      {"measurement": "Kp", "setting": "[4]; intracellular (PBMC) / plasma, oral, Ctrough, group 1, period 2 (day 35): raltegravir 400 mg twice daily + darunavir/ritonavir 800/100 mg once daily", "value": 4.5},
      {"measurement": "Kp at 24 h", "setting": "[4]; intracellular (PBMC) / plasma, oral, Ctrough, group 2, period 2 (day 35): raltegravir 800 mg once daily + darunavir/ritonavir 800/100 mg once daily", "value": 2.4},
      {"measurement": "virological response", "setting": "HIV", "value": "did not show the same virological response"}
    ]}
  ]
}
